Assay results from patent US20120015901A1, “METHODS AND PREPARATIONS FOR PROTECTING CRITICALLY ILL PATIENTS” (priority 2009, published 2012).
Like-named read-outs stand apart in the source and are kept apart here.

Legend:
[1] = test system: acute liver injury; conditions: cited from earlier work
[2] = test system: wild type yeast (BY4741) and null mutants; assay: Yeast chronological aging, survival plating (clonogenicity); assay type: cell-based
Procedure: Experiments were carried out in BY4741 (MATa his3Δ1 leu2Δ0 met15Δ0 ura3Δ0) and respective null mutants, obtained from Euroscarf. The double mutant Δiki3Δsas3 was generated according to Gueldener at al. (2002) Nucleic Acids Res. 30, e23 by using gene-specific URA3-knockout cassette, amplified by PCR with pUG72 as template (Lovaas & Carlin (1991) Free Radic Biol Med 11, 455-46.). […] All spe1 double mutant strains were obtained through mating and sporulation of BY4741 Δspe1 with the respective BY4742 ([…]) single mutant strains. Single and double mutant strains were verified for correct gene deletion by PCR and further checked for consistent auxotrophies. […] Strains were grown at 28° C. on SC medium containing 0.17% yeast nitrogen base (Difco), 0.5% (NH4)2SO4 and 30 mg/l of all amino acids (except 80 mg/l histidine and 200 mg/l leucine), 30 mg/l adenine, and 320 mg/l uracil with 2% glucose (SCD). […] To construct NHP6A-EGFP in pUG35-Ura (giving rise to a C-terminally tagged chimeric fusion protein under control of the met25-Promotor) the insert was amplified by PCR using genomic DNA from BY4741 as template and cloned into pUG35 using the EcoRI restriction site. The EGFP-ATG8 construct in pUG36-Ura (N-terminally tagged fusion protein) was similarly generated, using EcoRI and ClaI restriction sites.
In case of experiments with Δspe1 (FIG. 24 A-E), all strains were inoculated to 5·10^4 cells/ml. […] Therefore, for calculation of survival rates in experiments using Δiki3Δsas3, cell numbers of each sample were determined after two pulse of sonication on ice with Sonifier 250 from Benson (Duty Cycle: 35; Output Control: 2.5). Tests for apoptotic (TUNEL and Annexin V staining) and necrotic (PI staining) markers as well as markers for oxidative stress (DHE staining) were performed as described in Dod et al. (1982) Eur J Biochem 121, 401-405). For quantifications using flow cytometry (BD FACSAria), 30,000 cells were evaluated and analyzed with BD FACSDiva software. Spermidine (S4139, Sigma, Austria) and putrescine (P5780, Sigma, Austria; 1 mM final concentration) were added to stationary cultures at day 1 of the aging experiments (24 h after inoculation). 1 M aqueous stock solution of spermidine was stored in one use aliquots at −20° C. for no longer than 1 month. For adjustment of extracellular pH (pHex) to 6 (±0.5), the required amount of sodium hydroxide was added 30 h after inoculation. The pHex was maintained at approximately 6 (±0.5) throughout the aging.

Q: Which “effect on acute liver injury” value ([1]; administered 2, 5 and 8 hours after injection of cadmium chloride) does the source give for `NCCCCN` [putrescine, 1,4-diamino-butane] here?
A: protective effect

Q: What about the “effect on acute liver injury” value ([1]; administered 12, 15 and 18 h after cadmium injection) of the same compound?
A: did not provide a protective effect

Q: And the “chronological life span of polyamine depleted cells” value [2]?
A: restored
